The source made the active and inactive calls. No cut-off for these calls is given here.
How the values were obtained:
[1] = target: T1, Ephrin type-A receptor 8 (Mus musculus, UniProt O09127); assay: Displacement of biotinylated Fc-tagged ephrin-A1 from recombinant N/C-terminal 6-his tagged mouse EphA8 (Gly27 to Arg540 residues) preincubated for 1 hr followed by ephrin-A1-Fc addition and measured after 4 to 5 hrs by ELISA assay
T1 sequence (O09127 whole entry): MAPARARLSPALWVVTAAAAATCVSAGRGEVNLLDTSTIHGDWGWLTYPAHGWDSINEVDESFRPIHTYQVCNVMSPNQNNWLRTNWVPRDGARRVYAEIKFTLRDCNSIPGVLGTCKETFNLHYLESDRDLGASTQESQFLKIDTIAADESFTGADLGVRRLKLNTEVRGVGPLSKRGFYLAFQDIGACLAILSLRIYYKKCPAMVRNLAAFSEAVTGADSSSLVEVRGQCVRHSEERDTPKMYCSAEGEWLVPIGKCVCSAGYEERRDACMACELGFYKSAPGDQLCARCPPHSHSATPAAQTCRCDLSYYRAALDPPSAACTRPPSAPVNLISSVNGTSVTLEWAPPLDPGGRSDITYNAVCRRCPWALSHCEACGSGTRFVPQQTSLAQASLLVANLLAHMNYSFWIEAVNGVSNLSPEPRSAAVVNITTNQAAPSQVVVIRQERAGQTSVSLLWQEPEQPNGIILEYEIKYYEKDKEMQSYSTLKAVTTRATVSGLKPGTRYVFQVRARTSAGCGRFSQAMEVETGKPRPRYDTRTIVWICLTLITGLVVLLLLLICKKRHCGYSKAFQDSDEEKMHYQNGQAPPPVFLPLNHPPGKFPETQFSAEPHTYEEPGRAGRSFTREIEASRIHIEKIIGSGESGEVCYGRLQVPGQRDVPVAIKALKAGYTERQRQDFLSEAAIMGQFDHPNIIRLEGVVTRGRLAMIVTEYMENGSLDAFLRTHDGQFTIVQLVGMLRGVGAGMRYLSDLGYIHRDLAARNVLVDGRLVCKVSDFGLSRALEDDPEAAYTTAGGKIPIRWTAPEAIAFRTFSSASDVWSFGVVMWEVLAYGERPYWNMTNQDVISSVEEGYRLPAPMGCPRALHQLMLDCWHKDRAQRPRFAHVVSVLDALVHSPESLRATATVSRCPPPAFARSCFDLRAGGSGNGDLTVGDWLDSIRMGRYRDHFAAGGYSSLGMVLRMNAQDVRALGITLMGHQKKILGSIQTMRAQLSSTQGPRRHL

[2] = target: T2, Ephrin type-A receptor 2 (Mus musculus, UniProt Q03145); assay: Displacement of biotinylated Fc-tagged ephrin-A1 from C/N-terminal 6-His tagged mouse recombinant EphA2 (Ala22 to Ala535 residues) preincubated for 1 hr followed by ephrin-A1-Fc addition and measured after 4 to 5 hrs by ELISA assay
[3] = target: T3, Ephrin type-B receptor 2 (Mus musculus, UniProt P54763); assay: Displacement of biotinylated Fc-tagged ephrin-B1 from recombinant N/C-terminal 6-his tagged mouse EphB2 (Val27 to Lys548 residues) preincubated for 1 hr followed by ephrin-B1-Fc addition and measured after 4 to 5 hrs by ELISA assay
T3 sequence (P54763 whole entry): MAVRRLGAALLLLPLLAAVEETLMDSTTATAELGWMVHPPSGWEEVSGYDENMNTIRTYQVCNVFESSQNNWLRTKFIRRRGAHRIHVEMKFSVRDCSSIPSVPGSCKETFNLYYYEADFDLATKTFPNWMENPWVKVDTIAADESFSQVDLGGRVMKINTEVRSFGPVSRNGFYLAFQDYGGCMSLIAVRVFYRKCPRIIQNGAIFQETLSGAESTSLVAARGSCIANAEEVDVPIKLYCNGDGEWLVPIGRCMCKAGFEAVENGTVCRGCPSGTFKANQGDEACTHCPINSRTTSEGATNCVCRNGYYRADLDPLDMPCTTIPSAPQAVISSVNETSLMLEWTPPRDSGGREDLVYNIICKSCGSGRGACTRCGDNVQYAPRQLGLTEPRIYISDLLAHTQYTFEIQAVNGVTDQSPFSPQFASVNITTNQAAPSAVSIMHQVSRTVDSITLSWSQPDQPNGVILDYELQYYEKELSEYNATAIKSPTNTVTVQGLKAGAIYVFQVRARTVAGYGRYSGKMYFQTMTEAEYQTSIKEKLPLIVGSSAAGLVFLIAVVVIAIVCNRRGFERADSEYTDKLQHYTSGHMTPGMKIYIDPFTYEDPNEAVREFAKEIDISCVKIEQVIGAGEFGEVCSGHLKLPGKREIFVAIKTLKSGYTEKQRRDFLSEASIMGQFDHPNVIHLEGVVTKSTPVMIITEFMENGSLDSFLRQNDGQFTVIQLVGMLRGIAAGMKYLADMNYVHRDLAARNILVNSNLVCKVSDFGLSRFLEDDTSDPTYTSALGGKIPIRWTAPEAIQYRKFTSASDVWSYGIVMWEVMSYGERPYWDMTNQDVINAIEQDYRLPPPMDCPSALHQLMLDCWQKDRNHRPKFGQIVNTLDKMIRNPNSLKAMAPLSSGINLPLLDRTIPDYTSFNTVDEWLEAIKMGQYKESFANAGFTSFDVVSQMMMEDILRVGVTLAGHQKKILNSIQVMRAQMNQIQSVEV

[4] = target: T2, Ephrin type-A receptor 2; assay: Displacement of biotinylated Fc-tagged ephrin-A1 from C/N-terminal 6-His tag mouse recombinant EphA2 (Ala22 to Ala535 residues) assessed as inhibition constant preincubated for 1 hr followed by ephrin-A1-Fc addition and measured after 4 to 5 hrs by ELISA assay
[5] = system: U-251; assay: Antiproliferative activity against human U-251 cells assessed as inhibition of cell growth at 30 uM measured after 72 hrs by MTT assay relative to control; format: functional; design: scale not given: the % may be the effect or the level left
[6] = system: U-251; assay: Antiproliferative activity against human U-251 cells assessed as inhibition of cell growth at 10 uM measured after 72 hrs by MTT assay; format: functional, cell-based
[7] = target: Ephrin type-A receptor 2 (Homo sapiens) (UniProt P29317); assay: Antagonist activity at EphA2 in human U-251 cells assessed as inhibition of EphA2 phosphorylation at 10 to 30 uM preincubated for 20 mins followed by ephrin-A1-Fc addition and measured after 10 mins by ELISA assay; format: cell-based; details: filed as antagonist, dose 10-30 µM, time 30.0 min
[8] = system: U-251; assay: Cytotoxicity against human U-251 cells at upto 30 uM measured after 2 hrs by CytTox 96 non-radioactive cytotoxicity assay; format: functional, cell-based
[9] = target: Ephrin type-A receptor 2 (Homo sapiens) (UniProt P29317); assay: Induction of EphA2 phosphorylation in human U-251 cells; format: cell-based
[10] = system: U-251; assay: Antiproliferative activity against human U-251 cells assessed as increase in cell death at 30 uM measured after 48 hrs by MTT assay; format: functional, cell-based
[11] = system: LOUCY; assay: Antiproliferative activity against human LOUCY cells assessed as reduction in cell viability at 30 uM measured after 72 hrs by Celltiter-glo ATP based assay; format: functional
[12] = system: U-251; assay: Antiproliferative activity against human U-251 cells assessed as reduction in cell viability at 30 uM measured after 72 hrs by Celltiter-glo ATP based assay; format: functional

T2 sequence (Q03145 whole entry): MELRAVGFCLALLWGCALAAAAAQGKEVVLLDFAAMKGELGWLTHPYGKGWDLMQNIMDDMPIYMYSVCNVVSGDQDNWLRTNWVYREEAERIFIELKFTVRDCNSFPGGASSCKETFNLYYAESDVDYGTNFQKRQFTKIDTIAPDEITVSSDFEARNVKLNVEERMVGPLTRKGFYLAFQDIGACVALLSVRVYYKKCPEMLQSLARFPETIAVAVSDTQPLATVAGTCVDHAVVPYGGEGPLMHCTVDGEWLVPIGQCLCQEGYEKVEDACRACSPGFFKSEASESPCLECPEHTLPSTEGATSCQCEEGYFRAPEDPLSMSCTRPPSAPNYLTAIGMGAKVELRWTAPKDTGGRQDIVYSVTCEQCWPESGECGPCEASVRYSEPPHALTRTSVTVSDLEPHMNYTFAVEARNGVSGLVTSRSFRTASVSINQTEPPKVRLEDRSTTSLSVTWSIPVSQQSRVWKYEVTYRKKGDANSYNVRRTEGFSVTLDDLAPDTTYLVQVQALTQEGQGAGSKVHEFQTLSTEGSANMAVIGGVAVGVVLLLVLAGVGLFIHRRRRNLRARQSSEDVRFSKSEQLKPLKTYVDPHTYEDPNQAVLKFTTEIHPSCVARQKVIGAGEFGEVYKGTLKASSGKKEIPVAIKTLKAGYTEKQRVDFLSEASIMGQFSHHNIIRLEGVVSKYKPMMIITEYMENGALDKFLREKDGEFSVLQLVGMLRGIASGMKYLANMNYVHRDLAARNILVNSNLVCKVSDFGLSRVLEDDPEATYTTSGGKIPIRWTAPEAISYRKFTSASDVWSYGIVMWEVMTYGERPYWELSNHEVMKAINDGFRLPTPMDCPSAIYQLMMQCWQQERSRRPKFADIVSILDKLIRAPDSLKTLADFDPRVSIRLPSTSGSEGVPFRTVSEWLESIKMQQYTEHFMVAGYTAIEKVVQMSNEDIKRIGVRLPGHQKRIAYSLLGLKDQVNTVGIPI
Ephrin type-A receptor 2 (Homo sapiens), sequence (P29317 whole entry): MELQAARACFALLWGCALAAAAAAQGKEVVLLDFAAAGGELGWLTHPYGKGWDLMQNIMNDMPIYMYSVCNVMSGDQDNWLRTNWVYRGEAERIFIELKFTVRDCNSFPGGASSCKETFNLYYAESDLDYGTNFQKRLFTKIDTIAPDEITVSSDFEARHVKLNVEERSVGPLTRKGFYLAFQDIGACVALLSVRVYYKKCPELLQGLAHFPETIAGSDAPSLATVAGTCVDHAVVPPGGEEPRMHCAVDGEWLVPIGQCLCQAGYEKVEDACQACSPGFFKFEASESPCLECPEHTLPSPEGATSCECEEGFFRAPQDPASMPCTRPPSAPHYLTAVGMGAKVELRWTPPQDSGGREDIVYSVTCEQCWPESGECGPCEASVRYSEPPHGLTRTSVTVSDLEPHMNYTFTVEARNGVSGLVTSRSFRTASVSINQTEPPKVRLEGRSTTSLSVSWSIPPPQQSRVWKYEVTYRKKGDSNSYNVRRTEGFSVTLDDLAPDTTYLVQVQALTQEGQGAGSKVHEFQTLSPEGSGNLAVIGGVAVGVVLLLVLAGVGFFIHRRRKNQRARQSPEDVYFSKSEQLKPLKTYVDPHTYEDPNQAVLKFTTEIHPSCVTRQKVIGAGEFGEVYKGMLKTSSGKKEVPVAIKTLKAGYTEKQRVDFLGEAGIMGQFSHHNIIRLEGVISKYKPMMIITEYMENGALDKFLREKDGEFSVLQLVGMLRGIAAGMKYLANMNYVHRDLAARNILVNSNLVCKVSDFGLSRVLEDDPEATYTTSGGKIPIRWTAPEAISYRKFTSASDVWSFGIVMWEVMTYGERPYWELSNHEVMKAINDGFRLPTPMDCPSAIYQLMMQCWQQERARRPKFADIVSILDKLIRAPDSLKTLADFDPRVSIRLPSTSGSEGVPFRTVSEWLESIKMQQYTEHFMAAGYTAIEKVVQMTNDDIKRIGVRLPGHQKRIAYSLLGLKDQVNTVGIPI

## C[C@H](CCC(=O)N[C@H](CC(=O)O)Cc1c[nH]c2ccccc12)[C@H]1CC[C@H]2[C@@H]3CC=C4C[C@@H](O)CC[C@]4(C)[C@H]3CC[C@]12C
[1]
  IC50: 1.8 µM

## C[C@H](CCC(=O)N[C@H](CC(=O)O)Cc1cn(S(=O)(=O)c2ccccc2)c2ccccc12)[C@H]1CC[C@H]2[C@@H]3CC=C4C[C@@H](O)CC[C@]4(C)[C@H]3CC[C@]12C
[2]
  IC50: 8.1 µM
[1]
  IC50: 5.5 µM
[3]
  IC50: > 30 µM
[4]
  Ki: 2.2 µM

## C[C@H](CCC(=O)N[C@H](CC(=O)O)Cc1cn(S(=O)(=O)c2ccc(C(F)(F)F)cc2)c2ccccc12)[C@H]1CC[C@H]2[C@@H]3CC=C4C[C@@H](O)CC[C@]4(C)[C@H]3CC[C@]12C
[2]
  IC50: 2.6 µM
[1]
  IC50: 13 µM
[3]
  IC50: > 30 µM
[4]
  Ki: 2.8 µM
[5]
  Activity: 100%
[6]
  Activity: Active
[7]
  Activity: Active
[8]
  Activity: inactive
[9]
  Activity: inactive
[10]
  Activity: Active
[11]
  Activity: Active
[12]
  Activity: Active

Source: ChEMBL document CHEMBL5614382, “Discovery of a new 1-(phenylsulfonyl)-1H-indole derivative targeting the EphA2 receptor with antiproliferative activity on U251 glioblastoma cell line” (Eur J Med Chem, 2024)
